Molecules are shown by their SMILES.

In one assay the test system is ring stage parasites. The experiment in a line: Parasite growth potency assay, 72 hours, LDH readout. In kind it is cell-based. The conditions noted are these: 72 h, parasite growth measured by LDH assay after 72 hours at 37° C.; 0.7% rings, 2% haematocrit; read-out: EC50. The method in brief: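 Parasite growth was quantified by LDH assay after a −80 °C freeze-thaw. Before that, compound was incubated for 72 h at 37 °C under humidified gas with ring-stage cultures adjusted to 0.7% parasitemia and 2% haematocrit in serum- and albumax-supplemented RPMI-Hepes.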
Broadly, the EC50 is the concentration needed to bring the measured effect to its halfway point. Regarding `CCC1(CC)CC(=O)N([C@H](c2ccc(S(C)(=O)=O)cc2)c2cccc(C(=O)N[C@@H]3c4ccccc4C[C@H]3O)c2)C(=N)N1` [Example 116, [4,4-diethyl-1-[[3-[[(1R,2R)-2-hydroxyindan-1-yl]carbamoyl]phenyl]-(4-methylsulfonylphenyl)methyl]-6-oxo-hexahydropyrimidin-2-ylidene]ammonium; chloride], the 50% effective concentration (EC50) came out at 6.8 nM.
Still for that read-out and setting: in the case of `CCC12CCCCCCCC3CC(NC(=O)c4cccc(c4)CN(C(=N)N1)C(=O)C2)c1ccccc1O3` (stereo not drawn) [Example 118, (26-ethyl-8,29-dioxo-17-oxa-1,9,27-triazapentacyclo[24.2.2.13,7.110,18. 011,16]dotriaconta-3,5,7(32),11(16),12,14-hexaen-28-ylidene)ammonium; 2,2,2-trifluoroacetate] it was 56.5 nM; in that of `CCC[C@H](c1cccc(C(=O)N[C@@H]2c3ccccc3OC(C)(C)[C@H]2O)c1)N1C(=N)NC(CC)(CC)CC1=O` [Example 119A, [4,4-diethyl-1-[(1R)-1-[3-[(3-hydroxy-2,2-dimethyl-chroman-4-yl)carbamoyl]phenyl]butyl]-6-oxo-hexahydropyrimidin-2-ylidene]ammonium; 2,2,2-trifluoroacetate], 0.5 nM; in that of `CCC[C@H](c1cccc(C(=O)N[C@H]2c3ccccc3OC(C)(C)[C@@H]2O)c1)N1C(=N)NC(CC)(CC)CC1=O` [Example 119B, [4,4-diethyl-1-[(1R)-1-[3-[(3-hydroxy-2,2-dimethyl-chroman-4-yl)carbamoyl]phenyl]butyl]-6-oxo-hexahydropyrimidin-2-ylidene]ammonium; 2,2,2-trifluoroacetate], 34 nM.
Same read-out and setting: in the case of `CCC[C@H](c1cccc(C(=O)N[C@@H]2c3ccccc3CC2(C)O)c1)N1C(=N)NC(CC)(CC)CC1=O` (stereo partly drawn) [Example 122A, 3-[(1R)-1-(4,4-diethyl-2-imino-6-oxo-hexahydropyrimidin-1-yl)butyl]-N-(2-hydroxy-2-methyl-indan-1-yl)benzamide] it was 1.2 nM; in that of `CCC1(CC)CC(=O)N([C@@H](c2cccc(C(=O)N[C@H]3CCOc4ccccc43)c2)c2cccc(S(C)(=O)=O)c2)C(=N)N1` [Example 123A, [1-[[3-[[(4S)-chroman-4-yl]carbamoyl]phenyl]-(3-methylsulfonylphenyl)methyl]-4,4-diethyl-6-oxo-hexahydropyrimidin-2-ylidene]ammonium; 2,2,2-trifluoroacetate], 1.9 nM; in that of `CCC1(CC)CC(=O)N([C@H](c2cccc(C(=O)N[C@H]3CCOc4ccccc43)c2)c2cccc(S(C)(=O)=O)c2)C(=N)N1` [Example 123B, [1-[[3-[[(4S)-chroman-4-yl]carbamoyl]phenyl]-(3-methylsulfonylphenyl)methyl]-4,4-diethyl-6-oxo-hexahydropyrimidin-2-ylidene]ammonium; 2,2,2-trifluoroacetate], 9.3 nM.
The same measure, in the same setting: in the case of `CCC1(CC)CC(=O)N([C@@H](c2cccc(C(=O)N[C@@H]3c4ccccc4C[C@H]3O)c2)c2cccc(S(C)(=O)=O)c2)C(=N)N1` [Example 124A, [4,4-diethyl-1-[[3-[[(1R,2R)-2-hydroxyindan-1-yl]carbamoyl]phenyl]-(3-methylsulfonylphenyl)methyl]-6-oxo-hexahydropyrimidin-2-ylidene]ammonium; 2,2,2-trifluoroacetate] it was 9.9 nM; in that of `CCC1(CC)CC(=O)N([C@H](c2cccc(C(=O)N[C@@H]3c4ccccc4C[C@H]3O)c2)c2cccc(S(C)(=O)=O)c2)C(=N)N1` [Example 124B, [4,4-diethyl-1-[[3-[[(1R,2R)-2-hydroxyindan-1-yl]carbamoyl]phenyl]-(3-methylsulfonylphenyl)methyl]-6-oxo-hexahydropyrimidin-2-ylidene]ammonium; 2,2,2-trifluoroacetate], 53 nM.
As for `CCC1(CC)CC(=O)N([C@H](CCOC)c2cncc(C(=O)N[C@@H]3c4ccccc4C[C@H]3O)c2)C(=N)N1` [Example 125, [4,4-diethyl-1-[1-[5-[[(1R,2R)-2-hydroxyindan-1-yl]carbamoyl]pyridin-1-ium-3-yl]-3-methoxy-propyl]-6-oxo-hexahydropyrimidin-2-ylidene]ammonium; 2,2,2-trifluoroacetate], the EC50 came to 2.7 nM.
Same read-out and setting: next, `CCC[C@H](c1cccc(C(=O)N[C@H]2c3ccccc3OCC2O)c1)N1C(=N)NC(CC)(CC)CC1=O` (stereo partly drawn) [Example 127A, 3-[(1R)-1-(4,4-diethyl-2-imino-6-oxo-hexahydropyrimidin-1-yl)butyl]-N-(3-hydroxychroman-4-yl)benzamide]: 97.4 nM.
The same measure, in the same setting: next, `CCC[C@H](c1cccc(C(=O)N[C@@H]2c3ccccc3OCC2O)c1)N1C(=N)NC(CC)(CC)CC1=O` (stereo partly drawn) [Example 127D, 3-[(1R)-1-(4,4-diethyl-2-imino-6-oxo-hexahydropyrimidin-1-yl)butyl]-N-(3-hydroxychroman-4-yl)benzamide]: 1.2 nM; `COCC[C@H](c1cncc(C(=O)N[C@@H]2c3ccccc3C[C@H]2O)c1)N1C(=N)N[C@](C)(C(C)C)CC1=O` [Example 130, [(4S)-1-[1-[5-[[(1R,2R)-2-hydroxyindan-1-yl]carbamoyl]pyridin-1-ium-3-yl]-3-methoxy-propyl]-4-isopropyl-4-methyl-6-oxo-hexahydropyrimidin-2-ylidene]ammonium; 2,2,2-trifluoroacetate]: 18.8 nM.
The same measure, in the same setting: in the case of `CCC1(CC)CC(=O)N([C@@H](CCOC)c2cccc(C(=O)N[C@H]3C[C@H](C(F)(F)F)Oc4ccccc43)c2)C(=N)N1` [Example 132A, [[(2R,4S)-2-(trifluoromethyl)chroman-4-yl]carbamoyl]phenyl]propyl]-6-oxo-hexahydropyrimidin-2-ylidene]ammonium; 2,2,2-trifluoroacetate] it was 59 nM.
In the case of `CCC1(CC)CC(=O)N([C@H](CCOC)c2cccc(C(=O)N[C@H]3C[C@H](C(F)(F)F)Oc4ccccc43)c2)C(=N)N1` [Example 132B, [4,4-diethyl-1-[3-methoxy-1-[3-[[(2R,4S)-2-(trifluoromethyl)chroman-4-yl]carbamoyl]phenyl]propyl]-6-oxo-hexahydropyrimidin-2-ylidene]ammonium; 2,2,2-trifluoroacetate], the EC50 stood at 0.9 nM.
Same read-out and setting: next, `CCC1(CC)CC(=O)N(Cc2cc(C(=O)N[C@H]3C[C@H](C(F)(F)F)Oc4ccccc43)ccn2)C(=N)N1` [Example 134, [4,4-diethyl-6-oxo-1-[[4-[[(2R,4S)-2-(trifluoromethyl)chroman-4-yl]carbamoyl]pyridin-1-ium-2-yl]methyl]hexahydropyrimidin-2-ylidene]ammonium; 2,2,2-trifluoroacetate]: 8.6 nM.
On to `CCC1(CC)CC(=O)N([C@H](CCN2CCOCC2)c2cccc(C(=O)N[C@H]3CC(C)(C)Oc4ccccc43)c2)C(=N)N1` [Example 135, [1-[1-[3-[[(4S)-2,2-dimethylchroman-4-yl]carbamoyl]phenyl]-3-morpholin-4-ium-4-yl-propyl]-4,4-diethyl-6-oxo-hexahydropyrimidin-2-ylidene]ammonium; 2,2,2-trifluoroacetate], for which the EC50 came out at 1 nM.
On the same count and under the same terms, in the case of `CCC1(CC)CC(=O)N([C@H](CCN2CCOCC2)c2cccc(C(=O)N[C@H]3C[C@H](C(F)(F)F)Oc4ccccc43)c2)C(=N)N1` [Example 136, [4,4-diethyl-1-[3-morpholin-4-ium-4-yl-1-[3-[[(2R,4S)-2-(trifluoromethyl)chroman-4-yl]carbamoyl]phenyl]propyl]-6-oxo-hexahydropyrimidin-2-ylidene]ammonium; 2,2,2-trifluoroacetate] it was 1.3 nM; in that of `CCC1(CC)CC(=O)N([C@H](CCOC)c2cc(F)cc(C(=O)N[C@@H]3c4ccccc4C[C@H]3O)c2)C(=N)N1` [Example 138, [4,4-diethyl-1-[1-[3-fluoro-5-[[(1R,2R)-2-hydroxyindan-1-yl]carbamoyl]phenyl]-3-methoxy-propyl]-6-oxo-hexahydropyrimidin-2-ylidene]ammonium; 2,2,2-trifluoroacetate], 2.7 nM.
`CCC1(CC)CC(=O)N([C@H](COCCOC)c2cccc(C(=O)N[C@@H]3c4ccccc4OC(C)(C)[C@H]3O)c2)C(=N)N1` [Example 139, [4,4-diethyl-1-[(1S)-1-[3-[[(3S,4R)-3-hydroxy-2,2-dimethyl-chroman-4-yl]carbamoyl]phenyl]-2-(2-methoxyethoxy)ethyl]-6-oxo-hexahydropyrimidin-2-ylidene]ammonium; 2,2,2-trifluoroacetate]: the concentration for a half-maximal effect (EC50) amounted to 1.5 nM.
Still for that read-out and setting: in the case of `CCC1(CC)CC(=O)N([C@H](COCCOC)c2cccc(C(=O)N[C@@H]3c4ccccc4C[C@H]3O)c2)C(=N)N1` [Example 140, [4,4-diethyl-1-[(1S)-1-[3-[[(1R,2R)-2-hydroxyindan-1-yl]carbamoyl]phenyl]-2-(2-methoxyethoxy)ethyl]-6-oxo-hexahydropyrimidin-2-ylidene]ammonium; 2,2,2-trifluoroacetate] it was 3.2 nM.
On the same count and under the same terms, in the case of `CCC1(CC)CC(=O)N(Cc2cc(F)cc(C(=O)N[C@@H]3c4ccccc4OC(C)(C)[C@H]3O)c2)C(=N)N1` [Example 141, [4,4-diethyl-1-[[3-fluoro-5-[[(3S,4R)-3-hydroxy-2,2-dimethyl-chroman-4-yl]carbamoyl]phenyl]methyl]-6-oxo-hexahydropyrimidin-2-ylidene]ammonium; 2,2,2-trifluoroacetate] it was 0.8 nM.

The same assay, now with this note: parasite growth measured by LDH assay after 72 hours at 37° C.; 0.7% rings, 2% haematocrit; read-out: EC50.
`CCC[C@H](c1cccc(C(=O)N[C@@H]2c3ccccc3CC2(C)O)c1)N1C(=N)NC(CC)(CC)CC1=O` (stereo partly drawn) [Example 122D, 3-[(1R)-1-(4,4-diethyl-2-imino-6-oxo-hexahydropyrimidin-1-yl)butyl]-N-(2-hydroxy-2-methyl-indan-1-yl)benzamide]: the concentration giving a half-maximal response (EC50) amounted to 0.6 nM.
The same measure, in the same setting: in the case of `CCC[C@H](c1cccc(C(=O)N[C@H]2c3ccccc3OCC2O)c1)N1C(=N)NC(CC)(CC)CC1=O` (stereo partly drawn) [Example 127C, 3-[(1R)-1-(4,4-diethyl-2-imino-6-oxo-hexahydropyrimidin-1-yl)butyl]-N-(3-hydroxychroman-4-yl)benzamide] it was 53.8 nM.

Values taken from patent publication US12629374B2, “Antimalarial agents” (Merck Sharp & Dohme LLC, priority 2020, dated 2026).
